Assay results from patent US9592221B2, “Antibacterial agents: aryl myxopyronin derivatives” (priority 2012, dated 2017).
pIC50: −log10 of the molar value. ≈ marks a conversion by molar mass, not a printed value.

Assays:
[1] = tested on: Escherichia coli D21f2tolC; assay: MIC, spiral gradient endpoint assay, E. coli D21f2tolC; format: cell-based; settings: Escherichia coli, D21F2TOLC, read-out: MIC E. coli D21f2toIC
[2] = tested on: Staphylococcus aureus ATCC 12600; assay: MIC, spiral gradient endpoint assay, S. aureus ATCC 12600; format: cell-based; settings: ATCC12600; Staphylococcus aureus ATCC 12600
[3] = tested on: Acinetobacter baumannii ATCC 19606; assay: MIC, spiral gradient endpoint assay, A. baumannii; format: cell-based; settings: ATCC19606; Acinetobacter baumannii ATCC 19606
[4] = biological target: E. coli RNA polymerase σ^70 holoenzyme (Escherichia coli, UniProt P0A8T7+P0A8V2); assay: Fluorescence-detected RNA polymerase assay, E. coli RNA polymerase; format: biochemical; settings: read-out: IC50 E. coli RNAP
E. coli RNA polymerase σ^70 holoenzyme, sequence (P0A8T7 whole entry): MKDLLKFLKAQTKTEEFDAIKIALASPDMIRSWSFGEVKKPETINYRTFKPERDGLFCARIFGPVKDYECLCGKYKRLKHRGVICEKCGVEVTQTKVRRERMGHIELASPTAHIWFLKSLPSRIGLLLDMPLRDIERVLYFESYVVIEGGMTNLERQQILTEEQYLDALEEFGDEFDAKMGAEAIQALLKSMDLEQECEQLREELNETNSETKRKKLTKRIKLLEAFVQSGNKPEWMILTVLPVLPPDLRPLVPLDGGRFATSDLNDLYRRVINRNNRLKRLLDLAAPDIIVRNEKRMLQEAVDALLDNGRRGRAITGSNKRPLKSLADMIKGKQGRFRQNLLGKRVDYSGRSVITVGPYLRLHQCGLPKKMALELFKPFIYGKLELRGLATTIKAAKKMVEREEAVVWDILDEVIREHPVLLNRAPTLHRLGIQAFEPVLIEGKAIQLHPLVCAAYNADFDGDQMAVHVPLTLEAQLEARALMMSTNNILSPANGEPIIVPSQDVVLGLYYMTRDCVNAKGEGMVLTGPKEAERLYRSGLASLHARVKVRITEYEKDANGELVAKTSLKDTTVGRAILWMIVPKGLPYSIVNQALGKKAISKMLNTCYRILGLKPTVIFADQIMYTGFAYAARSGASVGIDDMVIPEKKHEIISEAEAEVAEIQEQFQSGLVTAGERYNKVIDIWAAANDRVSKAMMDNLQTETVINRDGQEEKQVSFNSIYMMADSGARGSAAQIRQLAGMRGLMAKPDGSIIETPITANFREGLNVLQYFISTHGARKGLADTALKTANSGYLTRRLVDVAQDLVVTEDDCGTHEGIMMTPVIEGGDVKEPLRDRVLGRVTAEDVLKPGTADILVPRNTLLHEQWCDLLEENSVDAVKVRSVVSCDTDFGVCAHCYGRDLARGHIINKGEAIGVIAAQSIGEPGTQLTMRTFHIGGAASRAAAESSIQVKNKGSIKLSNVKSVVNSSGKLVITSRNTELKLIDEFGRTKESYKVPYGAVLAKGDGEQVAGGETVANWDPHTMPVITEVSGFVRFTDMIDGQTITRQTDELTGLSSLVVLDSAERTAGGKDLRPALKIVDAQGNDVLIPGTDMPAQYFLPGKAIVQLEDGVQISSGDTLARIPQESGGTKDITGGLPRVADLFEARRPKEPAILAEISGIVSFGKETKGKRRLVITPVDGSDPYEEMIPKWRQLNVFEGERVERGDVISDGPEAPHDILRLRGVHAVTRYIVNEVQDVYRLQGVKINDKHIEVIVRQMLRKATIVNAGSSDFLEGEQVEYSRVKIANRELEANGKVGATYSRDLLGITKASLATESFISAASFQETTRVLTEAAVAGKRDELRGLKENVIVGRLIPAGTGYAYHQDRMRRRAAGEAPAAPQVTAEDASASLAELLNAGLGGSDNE
E. coli RNA polymerase σ^70 holoenzyme, sequence (P0A800 whole entry, further chain): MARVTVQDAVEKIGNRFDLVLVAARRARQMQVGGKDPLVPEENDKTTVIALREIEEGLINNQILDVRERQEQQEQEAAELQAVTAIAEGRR
E. coli RNA polymerase σ^70 holoenzyme, sequence (P0A8V2 whole entry): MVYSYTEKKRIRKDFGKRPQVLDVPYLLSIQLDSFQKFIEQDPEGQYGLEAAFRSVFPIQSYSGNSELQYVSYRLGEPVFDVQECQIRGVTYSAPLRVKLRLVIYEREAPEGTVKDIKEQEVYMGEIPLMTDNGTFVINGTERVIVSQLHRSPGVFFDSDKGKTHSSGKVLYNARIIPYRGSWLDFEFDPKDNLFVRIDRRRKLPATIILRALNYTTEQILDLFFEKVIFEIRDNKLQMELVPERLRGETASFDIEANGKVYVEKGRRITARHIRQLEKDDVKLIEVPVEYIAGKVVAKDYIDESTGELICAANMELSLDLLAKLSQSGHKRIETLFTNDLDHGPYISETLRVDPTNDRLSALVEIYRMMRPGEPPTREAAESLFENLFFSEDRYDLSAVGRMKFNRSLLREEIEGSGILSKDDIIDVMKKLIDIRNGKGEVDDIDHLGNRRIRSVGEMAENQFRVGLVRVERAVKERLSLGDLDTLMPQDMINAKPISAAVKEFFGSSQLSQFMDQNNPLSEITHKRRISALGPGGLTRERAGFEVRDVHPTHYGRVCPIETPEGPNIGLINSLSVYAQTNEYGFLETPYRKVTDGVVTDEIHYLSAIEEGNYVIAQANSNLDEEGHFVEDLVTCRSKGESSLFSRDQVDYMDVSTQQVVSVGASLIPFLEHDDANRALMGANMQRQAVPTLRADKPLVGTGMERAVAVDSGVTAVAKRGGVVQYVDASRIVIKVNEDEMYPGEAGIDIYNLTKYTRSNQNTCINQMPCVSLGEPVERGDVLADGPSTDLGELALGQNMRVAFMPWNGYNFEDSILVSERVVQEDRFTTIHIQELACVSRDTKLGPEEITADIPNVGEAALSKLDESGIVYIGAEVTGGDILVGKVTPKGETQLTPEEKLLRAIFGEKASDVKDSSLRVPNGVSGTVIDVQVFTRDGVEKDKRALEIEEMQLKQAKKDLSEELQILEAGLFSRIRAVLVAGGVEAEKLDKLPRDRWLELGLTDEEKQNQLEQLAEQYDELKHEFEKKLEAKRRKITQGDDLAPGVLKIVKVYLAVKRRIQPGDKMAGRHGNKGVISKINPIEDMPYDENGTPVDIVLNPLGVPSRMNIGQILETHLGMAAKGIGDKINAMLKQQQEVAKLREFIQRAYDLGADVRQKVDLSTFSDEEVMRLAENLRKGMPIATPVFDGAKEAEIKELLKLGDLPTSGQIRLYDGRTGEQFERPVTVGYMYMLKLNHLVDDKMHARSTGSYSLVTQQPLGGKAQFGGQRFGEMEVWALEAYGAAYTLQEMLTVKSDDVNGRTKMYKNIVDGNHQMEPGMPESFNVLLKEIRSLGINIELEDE
E. coli RNA polymerase σ^70 holoenzyme, sequence (P00579 whole entry, further chain): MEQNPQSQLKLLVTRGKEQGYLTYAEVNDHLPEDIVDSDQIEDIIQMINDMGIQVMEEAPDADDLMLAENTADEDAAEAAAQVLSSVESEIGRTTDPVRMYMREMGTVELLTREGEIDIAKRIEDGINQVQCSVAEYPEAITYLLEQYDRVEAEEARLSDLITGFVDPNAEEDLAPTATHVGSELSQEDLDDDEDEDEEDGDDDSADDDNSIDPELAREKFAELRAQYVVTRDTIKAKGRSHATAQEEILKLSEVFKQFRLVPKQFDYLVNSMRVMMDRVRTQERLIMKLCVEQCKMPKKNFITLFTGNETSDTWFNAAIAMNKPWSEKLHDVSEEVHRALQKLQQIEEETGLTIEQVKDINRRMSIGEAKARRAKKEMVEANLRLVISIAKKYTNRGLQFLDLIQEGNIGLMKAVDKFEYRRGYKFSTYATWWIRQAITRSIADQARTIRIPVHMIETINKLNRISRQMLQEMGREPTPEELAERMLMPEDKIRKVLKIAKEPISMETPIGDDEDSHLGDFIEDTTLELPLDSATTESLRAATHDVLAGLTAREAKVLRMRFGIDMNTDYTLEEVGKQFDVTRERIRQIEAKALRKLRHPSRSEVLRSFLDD
E. coli RNA polymerase σ^70 holoenzyme, sequence (P0A7Z4 whole entry, further chain): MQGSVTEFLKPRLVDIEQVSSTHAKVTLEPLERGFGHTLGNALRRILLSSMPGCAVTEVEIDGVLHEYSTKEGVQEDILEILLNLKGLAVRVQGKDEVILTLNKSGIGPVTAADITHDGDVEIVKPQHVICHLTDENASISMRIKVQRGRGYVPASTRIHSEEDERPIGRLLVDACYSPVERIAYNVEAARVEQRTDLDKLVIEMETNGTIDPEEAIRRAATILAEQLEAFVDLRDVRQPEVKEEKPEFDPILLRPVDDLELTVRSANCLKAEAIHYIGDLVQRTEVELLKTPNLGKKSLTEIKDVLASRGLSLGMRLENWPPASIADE

[5] = tested on: Burkholderia mallei CHN7; assay: microbe, parasite or virus in culture; format: cell-based; settings: Burkholderia mallei, CHN7, read-out: MIC B. mallei CHN7
[6] = tested on: Brucella melitensis 16M; assay: microbe, parasite or virus in culture; format: cell-based; settings: Brucella melitensis, 16M, read-out: MIC B. melitensis 16M
[7] = tested on: Francisella tularensis SCHU4; assay: microbe, parasite or virus in culture; format: cell-based; settings: Francisella tularensis, SCHU4, read-out: MIC F. tularensis SCHU4
[8] = tested on: Mycobacterium tuberculosis H37Rv; assay: MIC, microplate Alamar Blue assay, M. tuberculosis; format: cell-based
[9] = tested on: Bacillus anthracis Vollum 1b; assay: microbe, parasite or virus in culture; format: cell-based; settings: Bacillus anthracis, VOLLUM1B, read-out: MIC B. anthracis Vollum-1b
[10] = tested on: Burkholderia pseudomallei Human/Blood/OH/US/1994; assay: microbe, parasite or virus in culture; format: cell-based; settings: Burkholderia pseudomallei, read-out: MIC B. pseudomallei Human/Blood/OH

SMILES | MIC [1] [µg/mL] | MIC [2] [µg/mL] | MIC [3] [µg/mL] | pIC50 [4] | MIC [5] [µg/mL] | MIC [6] [µg/mL] | MIC [7] [µg/mL] | MIC [8] [µg/mL] | MIC [9] [µg/mL] | MIC [10] [µg/mL]
COC(=O)N/C=C/CCC(C)c1cc(O)c(C(=O)C(C)=Cc2ccc(OCCC(C)C)cc2)c(=O)o1 (mixture of isomers) [APY50, methyl (E)-5-(4-hydroxy-3-((E/Z)-3-(4-isopentyloxy)phenyl)-2-methacryloyl-2-oxo-2H-pyran-6-yl)hex-1-enylcarbamate] | 2 | > 40 | > 40 | < 5.22 |  |  |  |  |  | 
COC(=O)N/C=C/CCC(C)c1cc(O)c(C(=O)C(C)=Cc2cccc(OCCC(C)C)c2)c(=O)o1 (mixture of isomers) [APY51, methyl (E)-5-(4-hydroxy-3-((E/Z)-3-(3-isopentyloxy)phenyl)-2-methacryloyl-2-oxo-2H-pyran-6-yl)hex-1-enylcarbamate] | 0.5 | > 40 | > 40 | 6.00 |  |  |  |  |  | 
COC(=O)N/C=C/CCC(C)c1cc(O)c(C(=O)C(C)=Cc2ccc(OCC3CCCC3)cc2)c(=O)o1 (mixture of isomers) [APY52] | 0.4 | 4 | > 40 | 5.70 | 50 | 3 | 30 | 30 | 2 | > 50
COC(=O)N/C=C/CCC(C)c1cc(O)c(C(=O)C(C)=Cc2ccc(OCC(C)C)cc2)c(=O)o1 (mixture of isomers) [APY53, methyl (E)-5-(4-hydroxy-3-((E/Z)-3-(4-isobutoxyphenyl)-2-methacryloyl)-4-hydroxy-2-oxo-2H-pyran-6-yl)hex-1-enylcarbamate] | 0.4 | 2 | > 40 | 5.70 | > 50 | 10 | 50 | 6 | 3 | > 50
COC(=O)N/C=C/CCC(C)c1cc(O)c(C(=O)C(C)=Cc2ccc(OCC3CCCO3)cc2)c(=O)o1 (mixture of isomers) [APY54, methyl (E)-5-(4-hydroxy-3-((E/Z)-2-methyl-3-(4-((tetrahydrofuran-2-yl)methoxy)phenyl)acryloyl)-2-oxo-2H-pyran-6-y)hex-1-enylcarbamate] | 7 | > 40 | > 40 | < 5.22 |  |  |  |  |  | 
COC(=O)N/C=C/CCC(C)c1cc(O)c(C(=O)C(C)=Cc2ccc(OCC(C)(C)C)cc2)c(=O)o1 (mixture of isomers) [APY55, methyl (E)-5-(4-hydroxy-3-((E/Z)-2-methyl-3-(4-(neopentyloxy)phenyl)acryloyl)-2-oxo-2H-pyran-6-yl)hex-1-enylcarbamate] | 0.7 | 10 | > 40 | 7.40 | 50 | 30 | 30 | 10 | 2 | > 50
COC(=O)N/C=C/CCC(C)c1cc(O)c(C(=O)C(C)=Cc2ccc(CCC(C)(C)C)s2)c(=O)o1 (mixture of isomers) [APY56, methyl (E)-5-(4-hydroxy-5-((E/Z)-2-methyl-3-(5-(3,3-dimethylbutyl)thiophen-2-yl)acryloyl)-6-oxo-6H-pyran-2-yl)hex-1-enylcarbamate] | 0.2 | 0.7 | 10 | 8.15 | 3 | 3 | 6 | 10 | 0.2 | 6
COC(=O)N/C=C/CCC(C)c1cc(O)c(C(=O)C(C)=Cc2ccc(C)cc2)c(=O)o1 (mixture of isomers) [APY57, methyl (E)-5-(4-hydroxy-5-((E/Z)-2-methyl-3-p-tolylacryloyl)-6-oxo-6H-pyran-2-yl)hex-1-enylcarbamate] | 1 | > 40 | > 40 | < 5.22 |  |  |  |  |  | 
CCCc1ccc(C=C(C)C(=O)c2c(O)cc(C(C)CC/C=C/NC(=O)OC)oc2=O)s1 (mixture of isomers) [APY58, methyl (E)-5-(4-hydroxy-5-((E/Z)-2-methyl-3-(5-propylthiophen-2-yl)acryloyl)-6-oxo-6H-pyran-2-yl)hex-1-enylcarbamate] | 0.2 | 1 | > 40 | 7.10 | 50 | > 50 | 50 | 10 | 10 | 50
COC(=O)N/C=C/CCC(C)c1cc(O)c(C(=O)C(C)=Cc2ccc(CCC3CCCCC3)s2)c(=O)o1 (mixture of isomers) [APY62, methyl (E)-5-(5-((E/Z)-3-(5-(2-cyclohexylethyl)thiophen-2-yl)-2-methylacryloyl)-4-hydroxy-6-oxo-6H-pyran-2-yl)hex-1-enylcarbamate] | 10 | 2 | > 40 | 8.00 |  |  |  |  |  | 
COC(=O)N/C=C/CCC(C)c1cc(O)c(C(=O)C(C)=Cc2ccc(C)s2)c(=O)o1 (mixture of isomers) [APY69, methyl (E)-5-(4-hydroxy-5-((E/Z)-2-methyl-3-(5-methylthiophen-2-yl)acryloyl)-6-oxo-6H-pyran-2-yl)hex-1-enylcarbamate] | 7 | > 40 | > 40 | 6.00 |  |  |  |  |  | 
CCCc1ccc(C=C(C)C(=O)c2c(O)cc(C(C)CC/C=C/NC(=O)OC)oc2=O)cc1 (mixture of isomers) [APY71, methyl (E)-5-(4-hydroxy-5-((E/Z)-2-methyl-3-(4-propylphenyl)acryloyl)-6-oxo-6H-pyran-2-yl)hex-1-enylcarbamate] | 0.5 | 4 | > 40 | 6.40 | > 50 | 10 | > 50 |  | 30 | > 50
CCCCCc1ccc(C=C(C)C(=O)c2c(O)cc(C(C)CC/C=C/NC(=O)OC)oc2=O)cc1 (mixture of isomers) [APY72, methyl (E)-5-(4-hydroxy-5-((E/Z)-2-methyl-3-(4-pentylphenyl)acryloyl)-6-oxo-6H-pyran-2-yl)hex-1-enylcarbamate] | 0.2 | 2 | > 40 | 6.70 | 10 | 2 | 10 |  | 3 | 50
CCc1ccc2cc(C=C(C)C(=O)c3c(O)cc(C(C)CC/C=C/NC(=O)OC)oc3=O)oc2c1 (mixture of isomers) [APY110, methyl ((1E)-5-(3-(3-(6-ethylbenzofuran-2-yl)-2-methylacryloyl)-4-hydroxy-2-oxo-2H-pyran-6-yl)hex-1-en-1-yl)carbamate] | 0.3 | 8 | > 40 | 6.70 |  |  |  | 30 |  | 
COC(=O)N/C=C/CCC(C)c1cc(O)c(C(=O)C(C)=Cc2cc3ccc(CCC(C)C)cc3o2)c(=O)o1 (mixture of isomers) [APY111, methyl ((1E)-5-(4-hydroxy-3-(3-(6-isopentylbenzofuran-2-yl)-2-methylacryloyl)-2-oxo-2H-pyran-6-yl)hex-1-en-1-yl)carbamate] | 0.3 | > 40 | > 40 | 7.30 |  |  |  |  |  | 
COC(=O)N/C=C/CCC(C)c1cc(O)c(C(=O)C(C)=Cc2cc3ccc(CCC(F)(F)F)cc3o2)c(=O)o1 (mixture of isomers) [APY112, methyl ((1E)-5-(4-hydroxy-3-(2-methyl-3-(6-(3,3,3-trifluoropropyl)benzofuran-2-yl)acryloyl)-2-oxo-2H-pyran-6-yl)hex-1-en-1-yl)carbamate] | 0.2 | > 40 | > 40 | 6.52 |  |  |  |  |  | 
COC(=O)N/C=C/CCC(C)c1cc(O)c(C(=O)C(C)=Cc2cc3ccc(CCC(F)(F)F)cc3s2)c(=O)o1 (mixture of isomers) [APY114, methyl ((1E)-5-(4-hydroxy-3-(2-methyl-3-(6-(3,3,3-trifluoropropyl)benzo[b]thiophen-2-yl)acryloyl)-2-oxo-2H-pyran-6-yl)hex-1-en-1-yl)carbamate] | 0.2 | > 40 | > 40 | 6.52 |  |  |  |  |  | 
COC(=O)N/C=C/CCC(C)c1cc(O)c(C(=O)C(C)=Cc2cc(CCC(F)(F)F)cn2C)c(=O)o1 (mixture of isomers) [APY135, methyl ((1E)-5-(4-hydroxy-3-(2-methyl-3-(1-methyl-4-(3,3,3-trifluoropropyl)-1H-pyrrol-2-yl)acryloyl)-2-oxo-2H-pyran-6-yl)hex-1-en-1-yl)carbamate] | 2 | 10 | > 40 | 7.00 |  |  |  |  |  | 
CCCc1cn(C)c(C=C(C)C(=O)c2c(O)cc(C(C)CC/C=C/NC(=O)OC)oc2=O)n1 (mixture of isomers) [APY143, methyl ((1E)-5-(4-hydroxy-3-(2-methyl-3-(1-methyl-4-propyl-1H-imidazol-2-yl)acryloyl)-2-oxo-2H-pyran-6-yl)hex-1-en-1-yl)carbamate] | 10 | > 40 | > 40 | 6.00 |  |  |  |  |  | 
COC(=O)N/C=C/CCC(C)c1cc(O)c(C(=O)C(C)=Cc2cnc(N3CCCCC3)s2)c(=O)o1 (stereo not shown) [APY142] | 1 (≈ 1.99 µM) | 20 (≈ 39.9 µM) | > 40 | 6.22 |  |  |  |  |  | 
